Measured values reported in patent US20170158702A1, “MULTIVALENT RAS BINDING COMPOUNDS” (KYRAS THERAPEUTICS, INC., priority 2015, published 2017).
Counter-ions that a name gives are not always drawn.

Legend:
NCI-H460 = test: Viability assay with NCI-H460 (CellTiter-Glo cytotoxicity assay, 72 h); format: cell-based; details: NCI-H460 cell line, 72 h after compounds addition
Description: (§1) NCI-H460 (Epithelial lung tissue; carcinoma; large cell lung cancer) were cultured in RPMI Medium 1640 (Invitrogen-22400105) supplemented with 10% fetal bovine serum (FBS; Invitrogen-10099141). All the cell lines were maintained in a humidified incubator at 37° C. with 5% CO2. Cell culture media and supplements were purchased from Invitrogen, and tissue culture flasks were purchased from Corning, 96-well plates were purchased from Greiner. CellTiter-Glo Luminescent Cell Viability Assay kits were purchased from Promega (Promega-G7573), cells counter Vi-Cell was purchased from Beckman, D300e digital dispenser was purchased from Tecan, detection instrument Envision was purchased from PerkinElmer.
(§2) Paclitaxel was purchased from SELLECK, test compounds, such as any one of the compounds disclosed herein, attained solubility in DMSO and when diluted into culture media. DMSO, solutions containing the test compounds, and culture media were warmed to 37° C. or room temperature for the solution preparation and dilutions.
(§3) NCI-H460 Cell line were seeded in 96-well plates (1200/well) and allowed to adhere to overnight (100 uL/well), for drug treatments with 2 fold dilution, 9 dose points, triplicates or vehicle control, compound stock solutions were prepared in DMSO and use D300e digital dispenser to add compounds to the wells to give the indicated final drug concentrations. Final DMSO concentration was 0.5%. Cellular ATP concentrations were assessed by using the CellTiter-Glo Cell Viability Assay as per the manufacturer's instructions 72 h after compounds addition. Additional cells lines were assayed with any one of the compounds disclosed herein according to the procedures described for the viability assay with NCI-H460.

MIA PaCa-2 = test: Viability assay with MIA PaCa-2; format: cell-based; details: MIA PaCa-2, viability assay per Example 57
Description: as §1, §2, §3
A viability assay with MIA PaCa-2 (Epithelial pancreas tissue; carcinoma) was performed with compounds listed in Table 15, according to the procedures described in Example 57.

| Compound | EC50 (MIA PaCa-2) [µM] | EC50 (NCI-H460) [µM] |
| --- | --- | --- |
| NC1(C(=O)NCCCn2cc(-c3ccc(OC(F)(F)F)cc3)c3cc(CN4CCN(Cc5ccccc5OC(F)(F)F)CC4)ccc32)CCNCC1 [C58; Formic acid] | ≤ 5 | ≤ 5 |
| NCCCc1cn(-c2ccc(OC(F)(F)F)cc2)c2cc(CN3CCN(Cc4c(Cl)cccc4Cl)CC3)ccc12 [C87; Formic acid] | ≤ 5 | ≤ 5 |
| NC1(C(=O)NCCCn2cc(-c3ccc(OC(F)(F)F)cc3)c3cc(CN4CCC5(CC4)CCN(Cc4c(Cl)cccc4Cl)CC5)ccc32)CCNCC1 [C67; Formic acid] | ≤ 5 | ≤ 5 |
| NC1(C(=O)NCCCn2cc(-c3ccc(OC(F)(F)F)cc3)c3cc(CN4CC5CCC4CN5Cc4c(Cl)cccc4Cl)ccc32)CCNCC1 (stereo not drawn) [C69; HCl] | ≤ 5 | ≤ 5 |
| NC1(C(=O)NCCCn2cc(-c3ccc(OC(F)(F)F)cc3)c3cc(CNC4C5CN(Cc6c(Cl)cccc6Cl)CC54)ccc32)CCNCC1 (stereo not drawn) [C79; Formic acid] | ≤ 5 | ≤ 5 |
| O=C(NCCCc1cn(-c2ccc(OC(F)(F)F)cc2)c2cc(CN3CCN(Cc4c(Cl)cccc4Cl)CC3)ccc12)C1CNCCN1 (stereo not drawn) [C74; HCl] | ≤ 5 | ≤ 5 |
| CC(C)(C)OC(=O)N1CCC(N)(C(=O)NCCCc2cn(-c3ccc(OC(F)(F)F)cc3)c3cc(CN4CCN(Cc5c(Cl)cccc5Cl)CC4)ccc23)CC1 [C73; Formic acid] | ≤ 5 | ≤ 5 |
| NCCCn1cc(-c2ccc(OC(F)(F)F)cc2CN)c2cc(CN3CCN(Cc4ccc5c(c4)OCO5)CC3)ccc21 [C302; HCl] | ≤ 5 | ≤ 5 |
| NCC(N)C(=O)NCCCn1cc(-c2ccc(OC(F)(F)F)cc2)c2cc(CN3CCN(Cc4c(Cl)cccc4Cl)CC3)ccc21 (stereo not drawn) [C81; HCl] | ≤ 5 | ≤ 5 |
| CC(C)(C)OC(=O)NCCCc1cn(-c2ccc(OC(F)(F)F)cc2)c2cc(CN3CCN(Cc4c(Cl)cccc4Cl)CC3)ccc12 [C88; Formic acid] | > 30 | > 30 |
| NCCCn1cc(-c2ccccc2CCN)c2cc(CN3CCN(Cc4ccccc4Cl)CC3)ccc21 [C131, HCl] | ≤ 5 | ≤ 5 |
| NC1(C(=O)NCCCn2cc(-c3ccc(OC(F)(F)F)cc3)c3cc(CN4CC5CCC(C4)N5Cc4c(Cl)cccc4Cl)ccc32)CCNCC1 [C86; Formic acid] | ≤ 5 | ≤ 5 |
| NC1(C(=O)NCCCn2cc(-c3ccc(OC(F)(F)F)cc3)c3cc(CN4CCN(Cc5ccccc5F)CC4)ccc32)CCNCC1 [C60; Formic acid] | ≤ 5 | ≤ 5 |
| NC1(C(=O)NCCCn2cc(-c3ccc(OC(F)(F)F)cc3)c3cc(CN4CCC5(CC4)CN(Cc4c(Cl)cccc4Cl)C5)ccc32)CCNCC1 [C76; HCl] | ≤ 5 | 5 to 10 |
| NC1(C(=O)NCCCn2cc(-c3ccc(OC(F)(F)F)cc3)c3cc(CN4CCN(Cc5ccccc5)CC4)ccc32)CCNCC1 [C72; HCl] | ≤ 5 | ≤ 5 |
| NC1(C(=O)NCCCn2cc(-c3ccc(OC(F)(F)F)cc3)c3cc(CN4CCC5(CCN(Cc6c(Cl)cccc6Cl)CC5)C4)ccc32)CCNCC1 [C61; HCl] | ≤ 5 | ≤ 5 |
| NC1(C(=O)NCCCn2cc(-c3ccc(OC(F)(F)F)cc3)c3cc(CN4CCCC5(CCN(Cc6c(Cl)cccc6Cl)CC5)C4)ccc32)CCNCC1 [C68; Formic acid] | ≤ 5 | ≤ 5 |
| NC1(C(=O)NCCCn2cc(-c3ccc(OC(F)(F)F)cc3)c3cc(CN4CCN(Cc5c(Cl)cccc5Cl)CC4)ccc32)CCCCC1 [C82; HCl] | ≤ 5 | ≤ 5 |

Further lines, with some results ahead:

| EC50 (MIA PaCa-2) [µM] | Compound | EC50 (NCI-H460) [µM] |
| --- | --- | --- |
| ≤ 5 | NCCCn1cc(-c2ccc(OC(F)(F)F)cc2CN)c2cc(CN3CCN(Cc4cccc5c4OCO5)CC3)ccc21 [C304; HCl] | ≤ 5 |
| ≤ 5 | O=C(NCCCn1cc(-c2ccc(OC(F)(F)F)cc2)c2cc(CN3CCN(Cc4c(Cl)cccc4Cl)CC3)cnc21)C1CNCCN1 (stereo not drawn) [C176; HCl] | ≤ 5 |
| > 30 | CN1CCN(Cc2ccc3c(c2)c(-c2ccc(OC(F)(F)F)cc2)cn3CCCNC(=O)C2(N)CCNCC2)CC1 [C57; HCl] | > 30 |
| ≤ 5 | NC1(C(=O)NCCCn2cc(-c3ccc(OC(F)(F)F)cc3)c3cc(CN4CCN(Cc5c(Cl)cccc5Cl)CC4)cnc32)CCNCC1 [C174; HCl] | ≤ 5 |
| ≤ 5 | N#Cc1ccccc1CN1CCN(Cc2ccc3c(c2)c(-c2ccc(OC(F)(F)F)cc2)cn3CCCNC(=O)C2(N)CCNCC2)CC1 [C66; HCl] | ≤ 5 |
| ≤ 5 | NC1(C(=O)NCCCn2cc(-c3ccc(OC(F)(F)F)cc3)c3cc(CN4CC5C(C4)C5NCc4c(Cl)cccc4Cl)ccc32)CCNCC1 (stereo not drawn) [C85; HCl] | ≤ 5 |
| ≤ 5 | NCCCn1cc(-c2ccccc2CN)c2cc(CN3CCN(Cc4c(Cl)cccc4Cl)CC3)ccc21 [C161; HCl] | ≤ 5 |
| ≤ 5 | NC1(C(=O)NCCCn2cc(-c3ccc(OC(F)(F)F)cc3)c3cc(CN4CC5CC4CN5Cc4c(Cl)cccc4Cl)ccc32)CCNCC1 (stereo not drawn) [C77; HCl] | ≤ 5 |
| ≤ 5 | COc1cccc(CN2CCN(Cc3ccc4c(c3)c(-c3ccc(OC(F)(F)F)cc3CN)cn4CCCN)CC2)c1Cl [C306; HCl] | ≤ 5 |
| ≤ 5 | COc1ccc(CN2CCN(Cc3ccc4c(c3)c(-c3ccc(OC(F)(F)F)cc3CN)cn4CCCN)CC2)c(Cl)c1 [C305; HCl] | ≤ 5 |
| ≤ 5 | COc1cccc(CN2CCC3(CC2)CCN(Cc2ccc4c(c2)c(-c2ccc(OC(F)(F)F)cc2)cn4CCCN)C3)c1 [C309; HCl] | ≤ 5 |
| ≤ 5 | Cc1ccccc1CN1CCN(Cc2ccc3c(c2)c(-c2ccc(OC(F)(F)F)cc2)cn3CCCNC(=O)C2(N)CCNCC2)CC1 [C71; HCl] | ≤ 5 |
| ≤ 5 | NC1(C(=O)NCCCn2cc(-c3ccc(OC(F)(F)F)cc3)c3cc(CN4CC5(CCN(Cc6c(Cl)cccc6Cl)CC5)C4)ccc32)CCNCC1 [C65; HCl] | ≤ 5 |
| ≤ 5 | COc1cc(CN2CCC3(CC2)CCN(Cc2ccc4c(c2)c(-c2ccc(OC(F)(F)F)cc2)cn4CCCN)C3)cc(OC)c1 [C308; HCl] | ≤ 5 |
| ≤ 5 | NCCCn1cc(-c2ccc(OC(F)(F)F)cc2CN)c2cc(CN3CCN(Cc4ccc5c(c4)OCCO5)CC3)ccc21 [C303; HCl] | ≤ 5 |
| ≤ 5 | O=C(NCCCn1cc(-c2ccc(OC(F)(F)F)cc2)c2cc(CN3CCN(Cc4c(Cl)cccc4Cl)CC3)ccc21)C1(NCc2cccnc2-c2cccc(Cl)c2)CCNCC1 [C114; HCl] | ≤ 5 |
| ≤ 5 | NC1(C(=O)NCCCn2cc(-c3ccc(OC(F)(F)F)cc3)c3cc(CN4CCN(Cc5ccccc5C(F)(F)F)CC4)ccc32)CCNCC1 [C63; HCl] | ≤ 5 |
| ≤ 5 | NC1(C(=O)NCCCn2cc(-c3ccc(OC(F)(F)F)cc3)c3cc(CN4CC5CN(Cc6c(Cl)cccc6Cl)CC5C4)ccc32)CCNCC1 (stereo not drawn) [C70; HCl] | ≤ 5 |
| ≤ 5 | NC1(C(=O)NCCCc2cn(-c3ccc(OC(F)(F)F)cc3)c3cc(CN4CCN(Cc5c(Cl)cccc5Cl)CC4)ccc23)CCNCC1 [C75; HCl] | ≤ 5 |
| ≤ 5 | NC1(C(=O)NCCCn2cc(-c3ccc(OC(F)(F)F)cc3)c3cc(CN4CCCN(Cc5c(Cl)cccc5Cl)CC4)ccc32)CCNCC1 [C78; HCl] | ≤ 5 |
| ≤ 5 | COc1ccc(Cl)c(CN2CCN(Cc3ccc4c(c3)c(-c3ccc(OC(F)(F)F)cc3CN)cn4CCCN)CC2)c1 [C307; HCl] | ≤ 5 |
